The values below come from ChEMBL document CHEMBL1153220, “Chemical lead optimization of a pan G(q) mAChR M(1), M(3), M(5) positive allosteric modulator (PAM) lead. Part I: Development of the first highly selective M(5) PAM” (Bioorg Med Chem Lett, 2010).

Data set [1] addresses T1, Muscarinic acetylcholine receptor M1 (Rattus norvegicus, UniProt P08482).
T1 sequence (P08482 whole entry): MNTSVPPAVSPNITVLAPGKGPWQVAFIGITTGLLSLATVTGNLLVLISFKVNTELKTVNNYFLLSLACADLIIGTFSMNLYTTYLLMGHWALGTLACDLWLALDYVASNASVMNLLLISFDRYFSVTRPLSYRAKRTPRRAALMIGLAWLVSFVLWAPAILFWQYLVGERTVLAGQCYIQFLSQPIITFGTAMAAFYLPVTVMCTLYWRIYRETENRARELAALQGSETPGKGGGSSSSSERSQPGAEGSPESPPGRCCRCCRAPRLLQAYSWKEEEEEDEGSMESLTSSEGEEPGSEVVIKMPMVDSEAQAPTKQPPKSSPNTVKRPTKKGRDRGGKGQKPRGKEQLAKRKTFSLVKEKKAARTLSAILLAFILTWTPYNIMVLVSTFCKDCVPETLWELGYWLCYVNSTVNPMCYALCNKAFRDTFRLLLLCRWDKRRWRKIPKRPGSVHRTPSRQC
The experiment in a line: Agonist activity at rat muscarinic M1 expressed in CHO cells assessed as stimulation of calcium mobilization. It counts as functional, cell-based.

In data set [2] the target is T2, Muscarinic acetylcholine receptor M5 (Homo sapiens, UniProt P08912).
T2 sequence (P08912 whole entry): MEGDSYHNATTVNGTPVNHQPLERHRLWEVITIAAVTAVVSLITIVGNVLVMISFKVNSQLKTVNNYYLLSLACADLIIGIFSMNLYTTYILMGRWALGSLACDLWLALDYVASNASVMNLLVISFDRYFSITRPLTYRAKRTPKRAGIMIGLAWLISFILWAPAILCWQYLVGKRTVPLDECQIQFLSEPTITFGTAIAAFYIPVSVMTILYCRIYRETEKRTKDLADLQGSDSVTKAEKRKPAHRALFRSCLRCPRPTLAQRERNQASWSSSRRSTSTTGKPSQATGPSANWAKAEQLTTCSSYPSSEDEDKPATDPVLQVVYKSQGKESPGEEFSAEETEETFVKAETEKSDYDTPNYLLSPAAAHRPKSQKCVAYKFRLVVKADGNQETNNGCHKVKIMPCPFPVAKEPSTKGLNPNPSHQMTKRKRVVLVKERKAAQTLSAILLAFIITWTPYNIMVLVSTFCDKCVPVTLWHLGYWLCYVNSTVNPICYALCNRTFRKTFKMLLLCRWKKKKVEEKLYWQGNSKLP
The experiment in a line: Agonist activity at human muscarinic M5 expressed in CHO cells assessed as stimulation of calcium mobilization. It counts as functional, cell-based.

The target in data set [3] is T3, Muscarinic acetylcholine receptor M5 (Homo sapiens) (UniProt P08912).
T3 sequence (whole entry): T2 sequence (P08912 whole entry)
The experiment in a line: Agonist activity at human muscarinic M5 expressed in CHO cells assessed as stimulation of calcium mobilization relative to acetyle choline. It counts as functional, cell-based. Details: concentration or dose not given beside the values.

The nature of data set [4]: Ratio of AUC in rat brain to AUC in rat plasma. It counts as ADME, tissue-based. To be noted: read-out: Ratio AUC.
In data set [5] the target is T4, Muscarinic acetylcholine receptor M2 (Rattus norvegicus, UniProt P10980).
T4 sequence (P10980 whole entry): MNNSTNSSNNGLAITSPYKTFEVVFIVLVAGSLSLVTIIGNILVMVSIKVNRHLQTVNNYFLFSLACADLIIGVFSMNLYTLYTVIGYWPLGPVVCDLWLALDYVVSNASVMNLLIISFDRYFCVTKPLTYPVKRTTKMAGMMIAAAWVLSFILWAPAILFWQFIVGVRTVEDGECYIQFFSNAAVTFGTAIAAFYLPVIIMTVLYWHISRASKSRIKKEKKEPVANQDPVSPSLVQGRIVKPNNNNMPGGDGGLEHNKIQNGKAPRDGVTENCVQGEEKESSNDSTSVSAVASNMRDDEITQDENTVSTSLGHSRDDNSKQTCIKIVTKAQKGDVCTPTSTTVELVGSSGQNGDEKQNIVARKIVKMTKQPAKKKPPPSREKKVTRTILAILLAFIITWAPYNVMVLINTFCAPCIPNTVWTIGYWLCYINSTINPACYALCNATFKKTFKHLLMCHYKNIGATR
The experiment in a line: Agonist activity at rat muscarinic M2 expressed in CHO cells assessed as stimulation of calcium mobilization. It counts as functional, cell-based.

The target of data set [6] is T5, Muscarinic acetylcholine receptor M4 (Rattus norvegicus, UniProt P08485).
T5 sequence (P08485 whole entry): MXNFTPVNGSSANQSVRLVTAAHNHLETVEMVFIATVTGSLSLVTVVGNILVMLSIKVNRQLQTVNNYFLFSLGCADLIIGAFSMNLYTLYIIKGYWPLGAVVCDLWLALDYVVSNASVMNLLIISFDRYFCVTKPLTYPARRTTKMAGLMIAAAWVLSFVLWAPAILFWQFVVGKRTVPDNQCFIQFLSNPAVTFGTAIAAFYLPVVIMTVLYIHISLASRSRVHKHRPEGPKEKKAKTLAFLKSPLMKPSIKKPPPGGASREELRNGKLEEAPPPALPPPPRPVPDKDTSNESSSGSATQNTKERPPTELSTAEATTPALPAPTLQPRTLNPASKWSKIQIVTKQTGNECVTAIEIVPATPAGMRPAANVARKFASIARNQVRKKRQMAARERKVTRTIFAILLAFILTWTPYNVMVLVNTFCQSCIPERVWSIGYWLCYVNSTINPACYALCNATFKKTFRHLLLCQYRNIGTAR
The experiment in a line: Agonist activity at rat muscarinic M4 expressed in CHO cells assessed as stimulation of calcium mobilization. It counts as functional, cell-based.

Data set [7] deals with T6, Muscarinic acetylcholine receptor M1 (Rattus norvegicus) (UniProt P08482).
T6 sequence (whole entry): T1 sequence (P08482 whole entry)
The experiment in a line: Agonist activity at rat muscarinic M1 expressed in CHO cells assessed as stimulation of calcium mobilization at 30 uM. It counts as functional, cell-based.

Data set [8] has as its target Muscarinic acetylcholine receptor M3 (Homo sapiens) (UniProt P20309). The experiment in a line: Agonist activity at human muscarinic M3 expressed in CHO cells assessed as stimulation of calcium mobilization at 30 uM. It counts as functional, cell-based.

Some results are limits rather than exact numbers.

Muscarinic acetylcholine receptor M3 (Homo sapiens), sequence (P20309 whole entry, looked up): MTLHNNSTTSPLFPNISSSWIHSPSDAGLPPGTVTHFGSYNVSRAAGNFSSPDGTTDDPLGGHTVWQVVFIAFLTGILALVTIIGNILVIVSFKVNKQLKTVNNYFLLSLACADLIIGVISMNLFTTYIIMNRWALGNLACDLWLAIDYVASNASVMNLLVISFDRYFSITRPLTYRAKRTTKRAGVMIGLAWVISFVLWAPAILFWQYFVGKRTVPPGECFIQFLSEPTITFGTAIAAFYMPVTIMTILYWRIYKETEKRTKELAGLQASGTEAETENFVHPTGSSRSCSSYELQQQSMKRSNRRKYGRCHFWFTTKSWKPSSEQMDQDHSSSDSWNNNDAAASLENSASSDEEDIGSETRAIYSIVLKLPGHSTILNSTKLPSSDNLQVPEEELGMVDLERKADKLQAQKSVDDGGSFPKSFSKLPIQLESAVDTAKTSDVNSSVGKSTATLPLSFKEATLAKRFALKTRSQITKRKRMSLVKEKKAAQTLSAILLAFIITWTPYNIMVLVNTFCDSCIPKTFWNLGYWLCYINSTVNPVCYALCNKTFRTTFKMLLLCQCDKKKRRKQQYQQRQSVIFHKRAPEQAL

As to `O=C1C(=O)N(Cc2ccc(-c3ccc(Cl)nc3)cc2)c2ccc(OC(F)(F)F)cc21`, the results for the 50% effective concentration (EC50) in data set [1] and in data set [2] were over 30 µM and 4.8 µM, respectively. Also, in data set [3], the Activity was found to be 85%. Also, the Kp in data set [4] worked out at 0.25.

With `O=C1C(=O)N(Cc2ccc(Oc3ccccc3)cc2)c2ccc(OC(F)(F)F)cc21`, the EC50 in data set [2] turned out to be 1.9 µM. Moreover, the Activity in data set [3] was 75%.

Take `O=C1C(=O)N(Cc2ccc(-c3ccsc3)cc2)c2ccc(OC(F)(F)F)cc21`: the values for the half-maximal effective concentration (EC50) in data set [1] and in data set [2] were over 30 µM and 2.8 µM, respectively. Further, in data set [3], the Activity is 85%. The Kp in data set [4] came out at 0.25.

`O=C1C(=O)N(Cc2ccc(-c3ccccc3)cc2)c2ccc(OC(F)(F)F)cc21`: the EC50 was over 30 µM in data set [1] and 2.7 µM in data set [2]. Further, the Activity in data set [3] is 85%. The Kp in data set [4] turned out to be 0.25.

On to `COc1ccc(CN2C(=O)C(=O)c3ccc(OC(F)(F)F)cc32)cc1`, for which, in data set [2], the 50% effective concentration (EC50) was 5.7 µM.

In the case of `COc1ccccc1-c1ccc(CN2C(=O)C(=O)c3cc(OC(F)(F)F)ccc32)cc1`, the results for the EC50 in data set [1] and in data set [2] were over 30 µM and 3.9 µM, respectively. For the same compound, the Activity in data set [3] was determined as 70%. Besides, the Kp in data set [4] was determined as 0.25.

Consider `Cn1cc(-c2ccc(CN3C(=O)C(=O)c4cc(OC(F)(F)F)ccc43)cc2)cn1`, for which the EC50 was over 30 µM in data set [1] and 3.3 µM in data set [2]. The Activity in data set [3] stood at 85%. Further, the Kp in data set [4] turned out to be 0.25.

Consider `O=C1C(=O)N(Cc2ccc(-c3ccc(F)nc3)cc2)c2ccc(OC(F)(F)F)cc21`, for which the EC50 in data set [1] was over 30 µM; in data set [2] it was 3.6 µM. For the same compound, in data set [3], the Activity was found to be 80%. In addition, the Kp in data set [4] came out at 0.25.

As to `COc1ccc(CN2C(=O)C(=O)c3cc(OC(F)(F)F)ccc32)cc1`, the EC50 is over 30 µM in data set [5], over 30 µM in data set [6] and 1.1 µM in data set [2]. In addition, the Activity in data set [7] and in data set [8] was 30% in each case. Also, the Kp in data set [4] was found to be 0.25.

Consider `O=C1C(=O)N(Cc2ccc(-c3ccccc3)cc2)c2cc(OC(F)(F)F)ccc21`, for which the EC50 in data set [2] came out at 2.7 µM.

In the case of `O=C1C(=O)N(Cc2ccc(Br)cc2)c2ccccc21`, the EC50 in data set [5] and in data set [6] was over 30 µM throughout. The Kp in data set [4] was found to be 0.25.

In the case of `O=C1C(=O)N(Cc2ccc(C(F)(F)F)cc2)c2c(Cl)cccc21`, the concentration for a half-maximal effect (EC50) in data set [6] is over 10 µM. Moreover, the Kp in data set [4] worked out at 0.25.
